Measured values as given in ChEMBL document CHEMBL6103650, “Hybrid Molecules of Benzothiazole and Hydroxamic Acid as Dual-Acting Biofilm Inhibitors with Antibacterial Synergistic Effect against Pseudomonas aeruginosa Infections” (J Med Chem, 2025).

Tests used:
Pseudomonas aeruginosa [1] = assay: Antibacterial activity against Pseudomonas aeruginosa PAO1 assessed as inhibition of bacterial growth incubated for 24 hrs by serial dilution method; format: functional
Pseudomonas aeruginosa [2] = assay: Antibiofilm activity against Pseudomonas aeruginosa PAO1 assessed as inhibition of biofilm formation incubated for 24 hrs by crystal violet staining based analysis; format: functional, organism-based; details: PAO1, 24 h
Pseudomonas aeruginosa [3] = assay: Antibiofilm activity against Pseudomonas aeruginosa PA14 assessed as inhibition of biofilm formation incubated for 24 hrs by crystal violet staining based analysis; format: functional, organism-based; details: PA14, 24 h
Pseudomonas aeruginosa [4] = assay: Antibacterial activity against Pseudomonas aeruginosa PAO1 infected in BALB/c mouse wound infection model assessed as bacterial survival rate in wound at 0.5 mg/mL administered to wound once a day for 3 days in dropwise manner; format: functional; details: PAO1, 72 h, time 3 day
Pseudomonas aeruginosa [5] = assay: Antibacterial activity against Pseudomonas aeruginosa PAO1 infected in BALB/c mouse wound infection model assessed as reduction in wound area at 0.5 mg/mL administered to wound once a day for 3 days and measured after 9 days in dropwise manner; format: functional; design: scale not given: the % may be the effect or the level left; details: time 12 day
Pseudomonas aeruginosa [6] = assay: Antibacterial activity against Pseudomonas aeruginosa PAO1 infected in BALB/c mouse wound infection model assessed as reduction in wound area at 0.0025 mg/mL administered to wound once a day for 3 days and measured after 9 days in dropwise manner; format: functional; design: scale not given: the % may be the effect or the level left; details: time 12 day
Pseudomonas aeruginosa [7] = assay: Antibiofilm activity against Pseudomonas aeruginosa PAO1 assessed as reduction in pFe(III) content incubated for 24 hrs; format: functional

SMILES | MIC (Pseudomonas aeruginosa [1]) [µM] | IC50 (Pseudomonas aeruginosa [2]) [µM] | IC50 (Pseudomonas aeruginosa [3]) [µM] | survival at 500 µg/mL (Pseudomonas aeruginosa [4]) [%] | Activity (Pseudomonas aeruginosa [5]) [%] | Activity (Pseudomonas aeruginosa [6]) [%] | Activity (Pseudomonas aeruginosa [7])
O=C(CCCCNC(=O)CNc1nc2ccccc2s1)NO | > 256 | 3.33 | 7.02 |  |  |  | 
O=C(CCCCCCNC(=O)c1nc2ccccc2s1)NO | > 256 | 14.3 | 36.4 |  |  |  | 
COc1cccc(NCC(=O)NCCCCC(=O)NO)c1 | > 256 | > 80 | > 100 |  |  |  | 
O=C(Cc1ccc(CNC(=O)CNc2nc3ccc(C(F)(F)F)cc3s2)cc1)NO | > 256 | 3.16 | 7.3 |  |  |  | 
O=C(CCCCCNC(=O)c1nc2ccccc2s1)NO | > 256 | 10.2 | 19.1 |  |  |  | 
COc1ccc(NCC(=O)NCCCCC(=O)NO)cc1 | > 256 | > 80 | > 100 |  |  |  | 
O=C(CCCCNC(=O)CNc1nc2cc(F)ccc2s1)NO | > 256 | 14.7 | 28.9 |  |  |  | 
COc1cccc2sc(NCC(=O)Nc3ccc(CC(=O)NO)cc3)nc12 | > 256 | 1.42 | 3.92 |  |  |  | 
O=C(NO)c1ccc(CNC(=O)c2nc3ccccc3s2)cc1 | > 256 | 3.85 | 11.1 |  |  |  | 
O=C(CCCCNC(=O)CNc1nc2ccc(C(F)(F)F)cc2s1)NO | > 256 | 1.72 | 4.26 |  |  |  | 
COc1ccccc1NCC(=O)NCCCCC(=O)NO | > 256 | 26.9 | 54.5 |  |  |  | 
COc1cccc2sc(NCC(=O)NCCCCC(=O)NO)nc12 | > 256 | 0.51 | 1.89 |  |  |  | 
O=C(CCCCNC(=O)CNc1ccccc1)NO | > 256 | > 80 | > 100 |  |  |  | 
O=C(Cc1ccc(CNC(=O)CNc2nc3cc(Br)ccc3s2)cc1)NO | > 256 | 2.48 | 6.3 |  |  |  | 
NC[C@H]1O[C@H](O[C@H]2[C@H](O)[C@@H](O[C@H]3O[C@H](CO)[C@@H](O)[C@H](N)[C@H]3O)[C@H](N)C[C@@H]2N)[C@H](N)C[C@@H]1O [TOBRAMYCIN] |  |  |  | 0.22 | 36 | 41 | 
O=C(CCCCCCNC(=O)CNc1nc2ccccc2s1)NO | > 256 | 8.77 | 14 |  |  |  | 
COC(=O)CCCCNC(=O)CNc1nc2ccc(OC)cc2s1 | > 256 | 14.7 | 18.4 |  |  |  | 
O=C(CCCCCNC(=O)CNc1nc2ccc(C(F)(F)F)cc2s1)NO | > 256 | 3.67 | 11.7 |  |  |  | 
Cc1c(O)c(=O)ccn1C [DEFERIPRONE] |  |  |  |  |  |  | 20.13
COc1ccc2sc(NCC(=O)NCCCCC(=O)NO)nc2c1 | > 256 | 1.29 | 3.41 |  |  |  | 
COc1cccc2sc(NCC(=O)NCc3ccc(CC(=O)NO)cc3)nc12 | > 256 | 2.85 | 7.78 |  |  |  | 
COc1ccc2nc(NCC(=O)NC3CCC(C(=O)NO)CC3)sc2c1 (centres undefined) | > 256 | 6.64 | 14.7 |  |  |  | 
CC[C@H]1OC(=O)[C@H](C)[C@@H](O[C@H]2C[C@@](C)(OC)[C@@H](O)[C@H](C)O2)[C@H](C)[C@@H](O[C@@H]2O[C@H](C)C[C@H](N(C)C)[C@H]2O)[C@](C)(O)C[C@@H](C)CN(C)[C@H](C)[C@@H](O)[C@]1(C)O [AZITHROMYCIN] | > 256 | 11 | 38.5 |  |  |  | 
O=C(CCCCNC(=O)CNc1nccs1)NO | > 256 | 14.8 | 30.9 |  |  |  | 
O=C(CCCNC(=O)c1nc2ccccc2s1)NO | > 256 | 1.89 | 4.29 |  |  |  | 
O=C(CCCCCCNC(=O)CNc1nc2ccc(C(F)(F)F)cc2s1)NO | > 256 | 3.25 | 6.65 |  |  |  | 
O=C(CCCCCNC(=O)CNc1nc2ccccc2s1)NO | > 256 | 1.58 | 4.26 |  |  |  | 
O=C(Cc1ccc(CNC(=O)CNc2nc3cc(F)ccc3s2)cc1)NO | > 256 | 3.17 | 7.9 |  |  |  | 

The next lines start with results.

MIC (Pseudomonas aeruginosa [1]) [µM] | IC50 (Pseudomonas aeruginosa [2]) [µM] | IC50 (Pseudomonas aeruginosa [3]) [µM] | SMILES | survival at 500 µg/mL (Pseudomonas aeruginosa [4]) [%] | Activity (Pseudomonas aeruginosa [5]) [%] | Activity (Pseudomonas aeruginosa [6]) [%] | Activity (Pseudomonas aeruginosa [7])
> 256 | 10.2 | 17.5 | O=C(Cn1cc(CNc2nc3ccc(Cl)cc3s2)nn1)NO |  |  |  | 
> 256 | 1.17 | 2.93 | O=C(Cc1ccc(CNC(=O)CNc2nc3ccc(Br)cc3s2)cc1)NO |  |  |  | 
> 256 | 2.03 | 5.6 | Cc1ccc2nc(NCC(=O)NCc3ccc(CC(=O)NO)cc3)sc2c1 |  |  |  | 
> 256 | 0.79 | 2.21 | Cc1ccc2nc(NCC(=O)NCCCCC(=O)NO)sc2c1 |  |  |  | 
> 256 | > 80 | > 100 | COc1ccc2nc(NCC(=O)NCCCCN)sc2c1 |  |  |  | 
> 256 | 2.01 | 5.26 | O=C(CCCCNC(=O)CNc1nc2ccc(F)cc2s1)NO |  |  |  | 
> 256 | 6.23 | 15.6 | COc1ccc2nc(NCC(=O)NCc3ccc(CC(=O)NO)cc3)sc2c1 |  |  |  | 
> 256 | 1.94 | 5.09 | COc1ccc2nc(NCc3cn(CC(=O)NO)nn3)sc2c1 |  |  |  | 
> 256 | 1.6 | 3.85 | COc1ccc2nc(NCC(=O)NCCCCCC(=O)NO)sc2c1 |  |  |  | 
> 256 | 2.03 | 5.42 | O=C(Cn1cc(CNc2nc3ccc(C(F)(F)F)cc3s2)nn1)NO |  |  |  | 
> 256 | 2.05 | 5.67 | O=C(CCCCNC(=O)CNc1nc2ccc(Cl)cc2s1)NO |  |  |  | 
> 256 | 1.64 | 4.33 | Cc1ccc2nc(NCC(=O)Nc3ccc(CC(=O)NO)cc3)sc2c1 |  |  |  | 
> 256 | 5.15 | 15.2 | COc1ccc2nc(NCC(=O)NCCCC(=O)NO)sc2c1 |  |  |  | 
> 256 | 13.6 | 24.4 | O=C(CCCCCCNC(=O)CNc1nc2ccc(Cl)cc2s1)NO |  |  |  | 
> 256 | 12.8 | 24.4 | O=C(Cn1cc(CNC(=O)c2nc3ccccc3s2)nn1)NO |  |  |  | 
> 256 | 4 | 13.4 | CCOc1ccc2nc(NCC(=O)NCc3ccc(CC(=O)NO)cc3)sc2c1 |  |  |  | 
> 256 | 7.02 | 15 | O=C(CCCCNC(=O)CNc1nc2cc(Cl)ccc2s1)NO |  |  |  | 
> 256 | 20.9 | 36.6 | O=C(CCCCCNC(=O)CNc1nc2ccc(Cl)cc2s1)NO |  |  |  | 
> 256 | 1.49 | 4.49 | O=C(CCCCNC(=O)CNc1nc2ccc(Br)cc2s1)NO |  |  |  | 
